According to patent US10214542B2, “Modified macrocyclic compounds” (BAYER PHARMA AKTIENGESELLSCHAFT, priority 2015, dated 2019):
Read-outs that look alike come from different tables or passages of the source.

Assays:
[1] = target: T1, CDK9/CycT1 (Homo sapiens, UniProt P50750); assay: CDK9/CycT1 kinase assay (TR-FRET, Method 1a); format: biochemical; details: 10 μM ATP; for IC50: Method 1a; for Selectivity CDK9 over CDK2: IC50 (CDK2)/IC50 (CDK9): Methods 1a and 2a
T1 construct: Recombinant full-length His-tagged human CDK9 and CycT1; His; purchased Invitrogen PV4131; host or cells: insect cells
Source text: 1a. CDK9/CycT1 Kinase Assay:
CDK9/CycT1-inhibitory activity of compounds of the present invention was quantified employing the CDK9/CycT1 TR-FRET assay as described in the following paragraphs:
Recombinant full-length His-tagged human CDK9 and CycT1, expressed in insect cells and purified by Ni-NTA affinity chromatography, were purchased from Invitrogen (Cat. No PV4131). As substrate for the kinase reaction biotinylated peptide biotin-Ttds-YISPLKSPYKISEG (C-terminus in amid form) was used which can be purchased e.g. from the company JERINI Peptide Technologies (Berlin, Germany).
For the assay 50 nl of a 100 fold concentrated solution of the test compound in DMSO was pipetted into a black low volume 384 well microtiter plate (Greiner Bio-One, Frickenhausen, Germany), 2 μl of a solution of CDK9/CycT1 in aqueous assay buffer [50 mM Tris/HCl pH 8.0, 10 mM MgCl2, 1.0 mM dithiothreitol, 0.1 mM sodium ortho-vanadate, 0.01% (v/v) Nonidet-P40 (Sigma)] were added and the mixture was incubated for 15 min at 22° C. to allow pre-binding of the test compounds to the enzyme before the start of the kinase reaction. […] The concentration of CDK9/CycT1 was adjusted depending of the activity of the enzyme lot and was chosen appropriate to have the assay in the linear range, typical concentrations were in the range of 1 μg/mL. The reaction was stopped by the addition of 5 μl of a solution of TR-FRET detection reagents (0.2 μM streptavidine-XL665 [Cisbio Bioassays, Codolet, France] and 1 nM anti-RB(pSer807/pSer811)-antibody from BD Pharmingen [#558389] and 1.2 nM LANCE EU-W1024 labeled anti-mouse IgG antibody [Perkin-Elmer, product no. AD0077]) in an aqueous EDTA-solution (100 mM EDTA, 0.2% (w/v) bovine serum albumin in 100 mM HEPES pH 7.5).
The resulting mixture was incubated 1 h at 22° C. to allow the formation of complex between the phosphorylated biotinylated peptide and the detection reagents. Subsequently the amount of phosphorylated substrate was evaluated by measurement of the resonance energy transfer from the Eu-chelate to the streptavidine-XL. Therefore, the fluorescence emissions at 620 nm and 665 nm after excitation at 350 nm was measured in a HTRF reader, e.g. a Rubystar (BMG Labtechnologies, Offenburg, Germany) or a Viewlux (Perkin-Elmer). The ratio of the emissions at 665 nm and at […] was taken as the measure for the amount of phosphorylated substrate. The data were normalised (enzyme reaction without inhibitor=0% inhibition, all other assay components but no enzym=100% inhibition).

[2] = system: A2780 cells; assay: Proliferation assay, Cell Titre-Glo viability (Method 3); format: cell-based, human; details: A2780, 72-hour exposure, read-out: Inhibition of A2780 cell proliferation IC50
Procedure: A2780 human ovarian carcinoma cells (ECACC #93112519) and non-adherent MOLM-13 human acute myeloid leukemia cells (DSMZ ACC 554) were seeded at a density of 3,000 cell/well (A2780) or 5,000 cells/well (MOLM-13) in a 96-well multititer plate in 150 μL of growth medium supplemented 10% fetal calf serum. After 24 hours, cell viability of one plate (zero-point plate) was determined with the Cell Titre-Glo Luminescent Cell Viability Assay (Promega), while the medium of the other plates was supplemented with the test substances in various concentrations (0 μM, as well as in the range of 0.0001-10 μM; the final concentration of the solvent dimethyl sulfoxide was adjusted to 0.1%) using a Hewlett-Packard HP D300 Digital Dispenser. Cell viability was assessed after 72-hour exposure with the Cell
Titre-Glo Luminescent Cell Viability Assay (Promega). IC50 values (inhibitory concentration at 50% of maximal effect) were determined by means of a 4 parameter fit on measurement data which were normalized to vehicle (DMSO) treated cells (=100%) and measurement readings taken immediately before compound exposure (=0%).

T1 sequence (P50750 whole entry): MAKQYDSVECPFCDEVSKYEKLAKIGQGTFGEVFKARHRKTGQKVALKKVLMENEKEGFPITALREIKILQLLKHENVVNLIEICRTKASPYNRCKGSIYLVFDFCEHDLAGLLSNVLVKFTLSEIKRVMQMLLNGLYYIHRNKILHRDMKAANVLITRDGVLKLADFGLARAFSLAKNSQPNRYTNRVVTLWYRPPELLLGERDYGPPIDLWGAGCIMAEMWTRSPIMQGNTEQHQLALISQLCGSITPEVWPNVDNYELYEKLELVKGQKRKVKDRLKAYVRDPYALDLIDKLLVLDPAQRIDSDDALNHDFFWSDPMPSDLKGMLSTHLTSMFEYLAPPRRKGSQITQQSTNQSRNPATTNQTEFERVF
T1 sequence (O60563 whole entry partner): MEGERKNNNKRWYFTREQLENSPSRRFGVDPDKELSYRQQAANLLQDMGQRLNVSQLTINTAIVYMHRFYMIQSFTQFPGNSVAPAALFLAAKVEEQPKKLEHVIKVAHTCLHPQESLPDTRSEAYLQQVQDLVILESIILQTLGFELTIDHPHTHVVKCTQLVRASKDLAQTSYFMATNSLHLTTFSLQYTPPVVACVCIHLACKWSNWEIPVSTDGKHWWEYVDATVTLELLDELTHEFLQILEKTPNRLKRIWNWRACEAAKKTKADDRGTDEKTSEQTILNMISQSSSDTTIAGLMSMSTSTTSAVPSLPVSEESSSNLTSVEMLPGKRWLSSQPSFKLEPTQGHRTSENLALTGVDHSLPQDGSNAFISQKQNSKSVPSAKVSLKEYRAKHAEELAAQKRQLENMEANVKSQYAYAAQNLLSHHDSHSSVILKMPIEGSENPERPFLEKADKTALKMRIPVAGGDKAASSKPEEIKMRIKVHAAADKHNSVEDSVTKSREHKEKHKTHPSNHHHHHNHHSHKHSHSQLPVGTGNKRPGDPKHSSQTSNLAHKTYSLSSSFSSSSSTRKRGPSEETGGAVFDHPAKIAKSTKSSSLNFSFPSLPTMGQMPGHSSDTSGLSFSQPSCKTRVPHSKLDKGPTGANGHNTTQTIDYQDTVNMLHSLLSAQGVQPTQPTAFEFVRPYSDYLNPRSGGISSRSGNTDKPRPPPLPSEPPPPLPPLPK

IC50 [1] [nM]	Selectivity CDK9 over CDK2: IC50 (CDK2)/IC50 (CDK9) [1]	IC50 ([2]; Homo sapiens, A2780, 72 h) [nM]	IC50 [2] [nM]	SMILES
4.2	17.6	6.5		CN1CCCCNc2cc(F)ccc2-c2nc(ncc2F)Nc2cc(CS(C)(=N)=O)cc1c2.O=CO (racemic) [Example 17, (rac)-16,20-difluoro-6-methyl-9-[(S-methylsulfonimidoyl)methyl]-1,2,3,4,5,6-hexahydro-12H-17,13-(azeno)-11,7-(metheno)-1,6,12,14-benzotetraazacyclononadecine; salt with formic acid]
15	24.7	> 100		C[S+]([O-])Cc1cc2nc(c1)OCCCCCc1cc(F)ccc1-c1cc(ncc1F)N2 (racemic) [Example 19, (rac)-2,19-difluoro-9-[(methylsulfinyl)methyl]-14,15,16,17-tetrahydro-6H,13H-7,11-(azeno)-5,1-(metheno)-12,4,6-benzoxadiazacyclononadecine]
5.5	29.5	> 100	161	CS(=N)(=O)Cc1cc2nc(c1)OCCCCCc1cc(F)ccc1-c1cc(ncc1F)N2 (racemic) [Example 20, (rac)-2,19-difluoro-9-[(S-methylsulfonimidoyl)methyl]-14,15,16,17-tetrahydro-6H,13H-7,11-(azeno)-5,1-(metheno)-12,4,6-benzoxadiazacyclononadecine]
5.2	20.0	13		CN1CCCCOc2cc(F)ccc2-c2nc(ncc2F)Nc2cc(CS(C)(=N)=O)cc1c2 (racemic) [Example 23, (rac)-16,20-difluoro-6-methyl-9-[(S-methylsulfonimidoyl)methyl]-3,4,5,6-tetrahydro-2H,12H-13,17-(azeno)-11,7-(metheno)-1,6,12,14-benzoxatriazacyclononadecine]
2.9	28.1	9		CSCc1cc2nc(c1)Nc1cc(c(F)cn1)-c1ccc(F)cc1OCCCN2 [Example 1, 15,19-Difluoro-8-[(methylsulfanyl)methyl]-2,3,4,5-tetrahydro-11H-10,6-(azeno)-12,16-(metheno)-1,5,11,13-benzoxatriazacyclooctadecine]
25	1.1	> 100		CSCc1cc2nc(c1F)N(C)CCCCOc1cc(F)ccc1-c1cc(ncc1F)N2 [Example 12, 8,16,20-trifluoro-6-methyl-9-[(methylsulfanyl)methyl]-3,4,5,6-tetrahydro-2H,12H-11,7-(azeno)-13,17-(metheno)-1,6,12,14-benzoxatriazacyclononadecine]
99	25.9	> 100		CSCc1cc2nc(c1)OCCCCCc1cc(F)ccc1-c1cc(ncc1F)N2 [Example 18, 2,19-difluoro-9-[(methylsulfanyl)methyl]-14,15,16,17-tetrahydro-6H,13H-7,11-(azeno)-5,1-(metheno)-12,4,6-benzoxadiazacyclononadecine]
